Experiment [1] relates to HepG-2 human hepatoma cell line. As to the kind of experiment: MTT antiproliferative assay, HepG-2. The following applies: for IC50: MTT, 48 h treatment; for SI (selectivity index): SI = IC50, NIH/3T3/IC50, HepG-2. It counts as cell-based. Here is the method:
(§1) The antiproliferative activity of 1b–12b against three human cancer cell lines (include HepG-2 human hepatoma cell line, Hela human cervical carcinoma cell line and A549 human lung adenocarcinoma cell line) and NIH/3T3 mouse embryonic fibroblast cells were evaluated by the MTT assay (Table 2). […] For Hela cells, the antiproliferative activity of some of the derivatives were similar to that of cis-DDP. […] We selected compound 1b and cis-DDP to generate growth-inhibitory curves (Figure 1) against HepG-2 cells and Hela cells.
(§2) A MTT assay was developed to monitor mammalian cell survival and proliferation in vitro [29]. HepG-2 cells, Hela and A549 cells from the China Center for Type Culture Collection (CCTCC, Wuhan, China) were cultivated in RPMI-1640 medium supplemented with 10% fetal bovine serum (ν/ν), 100 U/mL penicillin, and […] streptomycin. Cells (5 × 10^3 cell/well) at the log phase of their growth cycle were added to each well of a 96-well plate and incubated for 24 h at 37 °C in a humidified atmosphere of 5% CO2. Then, cells were treated with or without test compounds at different concentrations. After 48 h, 5 mg/mL MTT solution (20 μL per well) was added. Cells were incubated at 37 °C. After 4 h, the MTT solution was removed and DMSO was added to each well (150 μL). Eight to twelve minutes later, the optical density (OD) values were measured at room temperature at a wavelength of 595 nm on a FilterMax F3/F5 Microplate Reader (Molecular Devices, Sydney, Australia). In this experiment, 5 mg/mL of cisplatin was used as the positive control and 0.1% DMSO was used as the negative reference. Each assay was carried out at least three times.

Experiment [2] relates to Hela human cervical carcinoma cell line. As to the kind of experiment: MTT antiproliferative assay, Hela. It is filed as cell-based. The following applies: 48 h treatment. As to the method:
as §1, §2
Background: Formazan colour is commonly taken as a measure of viable cells.

The subject of experiment [3] is A549 human lung adenocarcinoma cell line. As to the kind of experiment: MTT antiproliferative assay, A549. It counts as cell-based. The note with it: 48 h treatment. Here is the method:
as §1, §2

Experiment [4] has as its system NIH/3T3 mouse embryonic fibroblast cells. Nature of the experiment: MTT cytotoxicity assay, NIH/3T3 normal cells. It is filed as cell-based. The following applies: 48 h treatment, read-out: IC50 NIH/3T3 Cell Line. As to the method:
as §1, §2

In experiment [5] the test system is HepG-2 cells. Nature of the experiment: Plate colony formation (clonogenic survival) assay. It is filed as cell-based, human. The following applies: different concentrations of 1b. As to the method:
To assess the antiproliferative effect of compound 1b (Figure 2), we analyzed clonogenicity of HepG-2 cells after the treatment with 1b for 48 h.
Additionally, we used plate colony formation assay to evaluate the colony formation ability of HepG-2 cells. The cells were seeded in the complete medium in 6-well plate at 600 cells per well. After attachment, cells were exposed to different concentrations of compound 1b. After 7 days, the cells were fixed with paraformaldehyde for 20 min and stained with 1% crystal violet solution for 30 min to observe colonies.

For experiment [6], the system named is HepG-2 cells. As to the kind of experiment: Flow cytometric analysis of cell cycle distribution (PI). It counts as cell-based, human. The following applies: 24 h, control 9.97%. The source says: Cell cycle arrest is an important sign for inhibition of proliferation and the series of events that take place in a cell leading to its division and replication. […] Compound 1b was chosen for intensive mechanism study on HepG-2 cells because of its highest selectivity index (SI) value of 14.5. After the inhibitory effect of 1b on cell proliferation was observed, we next assessed the effect on the cell cycle distribution of HepG-2 cells by flow cytometry (Figure 3). […] This represented a remarkable difference from 9.97% in the control group (p < 0.05). These findings confirmed that compound 1b could influence HepG-2 cell cycle progression at low micromolar concentrations in a dose-dependent manner.
For flow cytometric analysis of the DNA content, HepG-2 cells (2.0 × 10^5 cells/well) in exponential growth were plated in 6-well plates and incubated for 24 h and then incubated with different concentrations (2.5, 5 and 10 μmol/L) of compound 1b at 37 °C for 24 h. After 24 h treatment, cells were collected, centrifuged, and fixed with ice-cold ethanol (70%) overnight 4 °C. The cells were washed twice with PBS and then treated with lysis buffer containing RNase A (Sigma, St. Louis, MO, USA), which was kept in a lukewarm bath at 37 °C, for 30 min, sequentially, and stained with PI and kept in the dark for 30 min [30]. Then, the samples were analyzed by a flow cytometer (FACSCalibur, BD Accuri^TM C6 BD Instruments Inc., New York, NY, USA). Each experiment was performed in triplicate. DNA histograms were analyzed using Mod Fit (version 3.2) for Windows (Verity Software House, New York, NY, USA).
In general terms: In flow cytometry, cells or beads pass a laser one at a time.

The subject of experiment [7] is HepG-2 cells. Nature of the experiment: Cellular apoptosis by Annexin V-FITC/PI flow cytometry. It is filed as cell-based, human. The note with it: 24 h; for total percentage of apoptotic cells (early and late, Q2 + Q3): vehicle 2.921%. Here is the method:
To examine the potency of the cancer cell apoptosis effect of 1b on HepG-2 cells, the number of apoptotic cells was monitored using flow cytometry. […] The total percentage of apoptotic cells (early and late, Q2 + Q3) was 2.921% when treated with vehicle alone.
HepG-2 cells (2.0 × 10^5 cells/well) were plated in a 6-well plate and allowed to adhere. After 24 h, the medium was replaced with fresh culture medium containing compound 1b at final concentrations of 2.5, 5, and 10 μmol/L at 37 °C. After 24 h, the cells were harvested and staining solution was added (containing 5 μL Annexin V-FITC and 5 μL PI). The cells were then incubated for 15 min at 20–25 °C in the dark. The samples were then detected in a FACScalibur BD Accuri^TM C6 flow cytometer. Analyses were performed by the software supplied with the instrument.

In experiment [8] the test system is HepG-2 cells. Nature of the experiment: Western blot analysis of apoptosis-related proteins. It counts as cell-based, human. The note with it: 2.5, 5 and 10 μM, 24 h. Here is the method: To explore the mechanisms underlying apoptosis of compound 1b in HepG-2 cells, the characteristics of apoptosis including p53, caspase 3 and PARP cleavage were examined. […] The features of apoptosis appeared to occur in a dose-dependent manner. Furthermore, we measured the effect of 1b on expression of anti-apoptotic protein Bcl-2 and pro-apoptotic protein Bax in HepG-2 cells.
HepG-2 cells (1.0 × 10^6 cells/well) were seeded in six-well plates. After treatment with compound 1b for 24 h, the preparation of total protein samples from the culture cells for immunoblotting was carried out as previously described. For gel electrophoresis (Novex® NuPAGE® SDS-PAG, Thermo, Waltham, MA, USA), 30–50 μg of protein was used per well. Then the proteins were separated by SDS-PAGE and electroblotted to nitrocellulose membrane. The membrane was incubated with the following indicated antibody: Bcl-2, Bax, caspase-3, p53, PARP and β-actin (Cell Signaling Technology, Beverly, MA, USA) for 12 h at 4 °C. The antibodies were used in […] 5% BSA-TBS-T. The blots were washed four times and then incubated with horseradish peroxidase-conjugated secondary antibody (Santa Cruz Biotechnology Laboratories. Santa Cruz, CA, USA) for 1.5 h at room temperature. β-Actin antibody was used for equal loading.
Background: In western blotting, separated proteins are transferred to a membrane and probed.

As to `COc1cc(C2CC(c3ccc(F)cc3)=NN2C(N)=S)cc(OC)c1OC` (stereo not drawn) [1b], the IC50 was 6.78 ± 1.44 µM in experiment [1], 7.63 ± 1.35 µM in experiment [2], > 100 µM in experiment [3] and > 100 µM in experiment [4]. In addition, in experiment [1], the “SI (selectivity index)” value was >14.75. Also, the “clonogenicity / plate colony formation of HepG-2 cells” value in the experiment with HepG-2 cells [5] is on record as “significantly reduced cell viability in a dose-dependent fashion”. In addition, the “percentage of cells at the G2/M phase” value with HepG-2 cells [6] (2.5 μmol/L) came to 25.06%; in the experiment with HepG-2 cells [6] (5 μmol/L) it was 56.15%; with HepG-2 cells [6] (10 μmol/L), 71.25%. For the same compound, the “fold percentage of apoptotic cells in comparison with the control group” value is 1.33 fold with HepG-2 cells [7] (2.5 μmol/L), 2.26 fold in the experiment with HepG-2 cells [7] (5 μmol/L) and 3.53 fold in the experiment on HepG-2 cells [7] (10 μmol/L). The “total percentage of apoptotic cells (early and late, Q2 + Q3)” value in the experiment with HepG-2 cells [7] (2.5 μmol/L) is recorded as 3.889%; in the experiment on HepG-2 cells [7] (5 μmol/L), 6.581%; in the experiment with HepG-2 cells [7] (10 μmol/L) it was 10.309%. Further, the PARP cleavage result with HepG-2 cells [8] is listed as “PARP was cleaved into fragmentation of 89 kDa”. Besides, the “expression of anti-apoptotic protein Bcl-2” value in the experiment on HepG-2 cells [8] is “decrease in expression”. The “expression of pro-apoptotic protein Bax” value with HepG-2 cells [8] is on record as “increase in expression”. The “level of cleaved caspase-3” value with HepG-2 cells [8] is listed as “dramatically increased”. Besides, the “level of p53” value in the experiment with HepG-2 cells [8] is reported as “dramatically increased”.

In the case of `CCOc1cc(C2CC(c3ccccc3O)=NN2C(N)=S)cc(Br)c1O` (stereo not drawn) [9b, 3-(2-Hydroxyphenyl)-5-(3-ethyoxyl-4-hydroxy-5-bromothiophenyl)-4,5-dihydro-1H-pyrazole-1-carbothioamide], the IC50 is 32.2 ± 2.83 µM in experiment [1], 7.74 ± 1.63 µM in experiment [2], > 100 µM in experiment [3] and > 100 µM in experiment [4]. Further, in experiment [1], the “SI (selectivity index)” value was >3.10.

For the compound `N.N.[Cl][Pt][Cl]` [cis-DDP, cisplatin, reference compound], the IC50 is 7.57 ± 0.98 µM in experiment [1], 5.28 ± 0.66 µM in experiment [2], 29.5 ± 3.3 µM in experiment [3] and 4.88 ± 1.93 µM in experiment [4]. Moreover, the “SI (selectivity index)” value in experiment [1] was 0.64.

These data come from article PMC6151802, “A New Series of Cytotoxic Pyrazoline Derivatives as Potential Anticancer Agents that Induce Cell Cycle Arrest and Apoptosis” (Molecules : A Journal of Synthetic Chemistry and Natural …, 2017).
